One molecule from publication PMC5218480 (PLoS ONE, 2017) can be followed below.

The test system of the experiment is MV-4-11 cells. Briefly: Gene expression microarray analysis (Affymetrix PrimeView) and GSEA. The format is cell-based, human. More on the design: RFU PODN (11730768_x_at) / Fold change /veh PODN (11730768_x_at) / RFU LINC00158 (11744669_a_at) / Fold change /veh LINC00158 (11744669_a_at) / RFU DUSP10 (11751237_a_at) / Fold change /veh DUSP10 (11751237_a_at) / RFU ID3 (11757404_x_at) / Fold change /veh ID3 (11757404_x_at) / RFU PLEKHG5 (11737974_s_at) / Fold change /veh PLEKHG5 (11737974_s_at) / RFU LRRC4B (11730491_at) / Fold change /veh LRRC4B (11730491_at) / RFU GIMAP4 (11747438_a_at) / Fold change /veh GIMAP4 (11747438_a_at) / RFU KRT8 (11758183_x_at) / Fold change /veh KRT8 (11758183_x_at) / RFU CNN1 (11734310_a_at) / Fold change /veh CNN1 (11734310_a_at) / RFU VPS37D (11726825_at) / Fold change /veh VPS37D (11726825_at) / RFU C10orf10 (11716522_x_at) / Fold change /veh C10orf10 (11716522_x_at) / RFU KIR2DL2 /// KIR2DL4 /// KIR2DL5A /// KIR2DL5B /// KIR2DS1 /// KIR2DS2 /// KIR2DS3 /// KIR2DS4 /// KIR3DL3 /// KIR3DL3 /// KIR3DS1 (11738374_at) / Fold change /veh KIR2DL2 /// KIR2DL4 /// KIR2DL5A /// KIR2DL5B /// KIR2DS1 /// KIR2DS2 /// KIR2DS3 /// KIR2DS4 /// KIR3DL3 /// KIR3DL3 /// KIR3DS1 (11738374_at) / RFU C1QL1 (11718748_at) / Fold change /veh C1QL1 (11718748_at) / RFU TMPRSS4 (11747572_a_at) / Fold change /veh TMPRSS4 (11747572_a_at) / RFU HAMP (11756126_x_at) / Fold change /veh HAMP (11756126_x_at) / RFU RNFT2 (11725882_a_at) / Fold change /veh RNFT2 (11725882_a_at) / RFU NR4A2 (11747474_a_at) / Fold change /veh NR4A2 (11747474_a_at) / RFU ABCC12 (11746883_a_at) / Fold change /veh ABCC12 (11746883_a_at) / RFU TMEM136 (11760407_x_at) / Fold change /veh TMEM136 (11760407_x_at) / RFU CLDN22 /// WWC2 (11732394_at) / Fold change /veh CLDN22 /// WWC2 (11732394_at) / RFU HLA-DPB1 (11760878_x_at) / Fold change /veh HLA-DPB1 (11760878_x_at) / RFU SPINT1 (11716480_a_at) / Fold change /veh SPINT1 (11716480_a_at) / RFU GAP43 (11754022_s_at) / Fold change /veh GAP43 (11754022_s_at) / RFU A4GNT (11735810_at) / Fold change /veh A4GNT (11735810_at) / RFU PRB3 (11715151_x_at) / Fold change /veh PRB3 (11715151_x_at) / RFU TUBB4B (11761932_at) / Fold change /veh TUBB4B (11761932_at) / RFU CAPN14 (11732068_a_at) / Fold change /veh CAPN14 (11732068_a_at) / RFU TMCC2 (11721928_a_at) / Fold change /veh TMCC2 (11721928_a_at) / RFU IRGQ (11745062_a_at) / Fold change /veh IRGQ (11745062_a_at) / RFU FAM174B (11720279_a_at) / Fold change /veh FAM174B (11720279_a_at) / RFU TMPRSS4 (11748680_a_at) / Fold change /veh TMPRSS4 (11748680_a_at) / RFU FAM212B (11763350_a_at) / Fold change /veh FAM212B (11763350_a_at) / RFU PLEKHG5 (11743358_a_at) / Fold change /veh PLEKHG5 (11743358_a_at) / RFU ZSCAN30 (11745921_a_at) / Fold change /veh ZSCAN30 (11745921_a_at) / RFU CMKLR1 (11741424_a_at) / Fold change /veh CMKLR1 (11741424_a_at) / RFU LOC101060620 /// MAPK8IP1 (11723275_at) / Fold change /veh LOC101060620 /// MAPK8IP1 (11723275_at) / RFU SPTSSB (11747773_x_at) / Fold change /veh SPTSSB (11747773_x_at) / RFU PRSS12 (11739890_at) / Fold change /veh PRSS12 (11739890_at) / RFU BIN1 (11741810_x_at) / Fold change /veh BIN1 (11741810_x_at) / RFU WNT11 (11732464_a_at) / Fold change /veh WNT11 (11732464_a_at) / RFU C10orf10 (11716521_a_at) / Fold change /veh C10orf10 (11716521_a_at) / RFU C5orf56 (11738089_at) / Fold change /veh C5orf56 (11738089_at) / RFU CYB561 (11721691_x_at) / Fold change /veh CYB561 (11721691_x_at) / RFU ANKRD19P (11752326_a_at) / Fold change /veh ANKRD19P (11752326_a_at) / RFU OR2T12 /// OR2T33 /// OR2T8 (11738714_s_at) / Fold change /veh OR2T12 /// OR2T33 /// OR2T8 (11738714_s_at) / RFU VCAN (11748164_a_at) / Fold change /veh VCAN (11748164_a_at) / RFU JSRP1 (11732532_at) / Fold change /veh JSRP1 (11732532_at) / RFU KRTAP10-11 (11738290_x_at) / Fold change /veh KRTAP10-11 (11738290_x_at) / RFU MYO3A (11730013_a_at) / Fold change /veh MYO3A (11730013_a_at) / RFU EBF3 (11725865_a_at) / Fold change /veh EBF3 (11725865_a_at) / RFU CAMK2N1 (11719241_x_at) / Fold change /veh CAMK2N1 (11719241_x_at) / RFU C5orf56 (11738088_a_at) / Fold change /veh C5orf56 (11738088_a_at) / RFU OLFML3 (11715873_a_at) / Fold change /veh OLFML3 (11715873_a_at) / RFU LOC100653217 /// NTM (11731650_a_at) / Fold change /veh LOC100653217 /// NTM (11731650_a_at) / RFU MAPK11 (11762145_a_at) / Fold change /veh MAPK11 (11762145_a_at) / RFU FIZ1 (11724087_x_at) / Fold change /veh FIZ1 (11724087_x_at) / RFU OASL (11726364_x_at) / Fold change /veh OASL (11726364_x_at) / RFU SOX15 (11748057_x_at) / Fold change /veh SOX15 (11748057_x_at) / RFU CD79A (11719716_a_at) / Fold change /veh CD79A (11719716_a_at) / RFU HIST1H1D (11736915_at) / Fold change /veh HIST1H1D (11736915_at) / RFU CASKIN2 (11723855_a_at) / Fold change /veh CASKIN2 (11723855_a_at) / RFU LOC730098 (11760151_x_at) / Fold change /veh LOC730098 (11760151_x_at) / RFU OR4N2 (11742367_at) / Fold change /veh OR4N2 (11742367_at) / RFU PRRT2 (11749266_a_at) / Fold change /veh PRRT2 (11749266_a_at) / RFU SNX32 (11753110_a_at) / Fold change /veh SNX32 (11753110_a_at) / RFU CDHR5 (11726645_a_at) / Fold change /veh CDHR5 (11726645_a_at) / RFU RCAN1 (11760418_a_at) / Fold change /veh RCAN1 (11760418_a_at) / RFU FAM167A (11723789_a_at) / Fold change /veh FAM167A (11723789_a_at) / RFU FAM26E (11764081_at) / Fold change /veh FAM26E (11764081_at) / RFU ISYNA1 (11749810_s_at) / Fold change /veh ISYNA1 (11749810_s_at) / RFU ACY1 (11761880_at) / Fold change /veh ACY1 (11761880_at) / RFU 11764098_at / Fold change /veh 11764098_at / RFU SAMD14 (11745864_x_at) / Fold change /veh SAMD14 (11745864_x_at) / RFU NPB (11741838_a_at) / Fold change /veh NPB (11741838_a_at) / RFU TMPRSS6 (11731388_a_at) / Fold change /veh TMPRSS6 (11731388_a_at) / RFU KRTAP10-2 (11738614_at) / Fold change /veh KRTAP10-2 (11738614_at) / RFU ARHGAP8 /// PRR5-ARHGAP8 (11727945_x_at) / Fold change /veh ARHGAP8 /// PRR5-ARHGAP8 (11727945_x_at) / RFU KRTAP5-7 /// NADSYN1 (11734609_at) / Fold change /veh KRTAP5-7 /// NADSYN1 (11734609_at) / RFU RASL12 (11751679_a_at) / Fold change /veh RASL12 (11751679_a_at) / RFU CDKN2B (11736163_a_at) / Fold change /veh CDKN2B (11736163_a_at) / RFU PRF1 (11729649_at) / Fold change /veh PRF1 (11729649_at) / RFU, ZNF638 /// ZNF638-IT1 / Fold change vs veh, ZNF638 /// ZNF638-IT1 / RFU, PANK3 / Fold change vs veh, PANK3 / RFU, SH3YL1 / Fold change vs veh, SH3YL1 / RFU, ZEB2 / Fold change vs veh, ZEB2 / RFU, NRIP1 / Fold change vs veh, NRIP1 / RFU, PTTG1IP / Fold change vs veh, PTTG1IP / RFU, CAPN2 / Fold change vs veh, CAPN2 / RFU, MED14 / Fold change vs veh, MED14 / RFU, SNORA58 / Fold change vs veh, SNORA58 / RFU, C1orf63 / Fold change vs veh, C1orf63 / RFU, LRRFIP1 / Fold change vs veh, LRRFIP1 / RFU, NDUFAF7 / Fold change vs veh, NDUFAF7 / RFU, SLC12A2 / Fold change vs veh, SLC12A2 / RFU, IBTK / Fold change vs veh, IBTK / RFU, ESF1 / Fold change vs veh, ESF1 / Fold change vs veh, TMEM50B / RFU, TAOK1 / Fold change vs veh, TAOK1 / RFU, ACBD3 / Fold change vs veh, ACBD3 / RFU, TMA16 / Fold change vs veh, TMA16 / RFU, RWDD3 / Fold change vs veh, RWDD3 / RFU, BCAT1 / Fold change vs veh, BCAT1 / RFU, EDEM3 / Fold change vs veh, EDEM3 / RFU, TMEM33 / Fold change vs veh, TMEM33 / RFU, WDR75 / Fold change vs veh, WDR75 / RFU, AHCTF1 / Fold change vs veh, AHCTF1 / RFU, TFRC / Fold change vs veh, TFRC / RFU, ZDHHC17 / Fold change vs veh, ZDHHC17 / RFU, NOM1 / Fold change vs veh, NOM1 / RFU, ARL8B / Fold change vs veh, ARL8B / RFU, ZBTB11 / Fold change vs veh, ZBTB11 / RFU, TAMM41 / Fold change vs veh, TAMM41 / RFU, KIAA1704 /// LOC100996395 / Fold change vs veh, KIAA1704 /// LOC100996395 / RFU, ING1 / Fold change vs veh, ING1 / RFU, TRMT61B / Fold change vs veh, TRMT61B / RFU, FUBP3 / Fold change vs veh, FUBP3 / RFU, TP53 / Fold change vs veh, TP53 / RFU, TNKS2 / Fold change vs veh, TNKS2 / RFU, ZFP14 / Fold change vs veh, ZFP14 / RFU, ACTR2 / Fold change vs veh, ACTR2 / RFU, PPP3R1 / Fold change vs veh, PPP3R1 / RFU, PIK3R1 / Fold change vs veh, PIK3R1 / RFU, HNRNPA1 / Fold change vs veh, HNRNPA1 / RFU, RNF170 / Fold change vs veh, RNF170 / RFU, ZNF28 / Fold change vs veh, ZNF28 / RFU, RNGTT / Fold change vs veh, RNGTT / RFU, OGT / Fold change vs veh, OGT / RFU, BRD1 / Fold change vs veh, BRD1 / RFU, MARS / Fold change vs veh, MARS / RFU, ZNF655 / Fold change vs veh, ZNF655 / RFU, FAHD1 / Fold change vs veh, FAHD1 / RFU, BDP1 / Fold change vs veh, BDP1 / RFU, LRRCC1 / Fold change vs veh, LRRCC1 / RFU, ARID1A / Fold change vs veh, ARID1A / RFU, ZNF146 / Fold change vs veh, ZNF146 / RFU, ZNF330 / Fold change vs veh, ZNF330 / RFU, GPN3 / Fold change vs veh, GPN3 / RFU, C9orf123 / Fold change vs veh, C9orf123 / RFU, N4BP2L2 / Fold change vs veh, N4BP2L2 / RFU, ARFIP1 / Fold change vs veh, ARFIP1 / RFU, FAM179B / Fold change vs veh, FAM179B / RFU, BCL10 / Fold change vs veh, BCL10 / RFU, UHRF1BP1L / Fold change vs veh, UHRF1BP1L / RFU, BET1 / Fold change vs veh, BET1 / RFU, CNOT2 / Fold change vs veh, CNOT2 / RFU, ZNF268 / Fold change vs veh, ZNF268 / Fold change vs veh, ZNF507 / RFU, DGCR2 / Fold change vs veh, DGCR2 / RFU, WDSUB1 / Fold change vs veh, WDSUB1 / Fold change vs veh, HSP90B1 /// MIR3652 / RFU, ADSS / Fold change vs veh, ADSS / RFU, GK / Fold change vs veh, GK / RFU, ZNF148 / Fold change vs veh, ZNF148 / RFU, TAF9 / Fold change vs veh, TAF9 / RFU, SLC1A5 / Fold change vs veh, SLC1A5 / RFU, SLMO2 / Fold change vs veh, SLMO2 / RFU, ABCC4 / Fold change vs veh, ABCC4 / RFU, LOC101060439 /// RAP1B / Fold change vs veh, LOC101060439 /// RAP1B / RFU, RFX7 / Fold change vs veh, RFX7 / RFU, GTPBP10 / Fold change vs veh, GTPBP10 / RFU, CNEP1R1 / Fold change vs veh, CNEP1R1 / RFU, BIVM-ERCC5 /// ERCC5 / Fold change vs veh, BIVM-ERCC5 /// ERCC5 / RFU, ILF3 / Fold change vs veh, ILF3 / RFU 11762660_at / Fold change /veh 11762660_at / RFU VCAN (11757783_s_at) / Fold change /veh VCAN (11757783_s_at) / RFU DDX43 (11728927_at) / Fold change /veh DDX43 (11728927_at) / RFU KRT8 (11758188_x_at) / Fold change /veh KRT8 (11758188_x_at) / RFU NKD1 (11759106_at) / Fold change /veh NKD1 (11759106_at) / RFU SRD5A1 (11742802_a_at) / Fold change /veh SRD5A1 (11742802_a_at) / RFU TPSAB1 /// TPSB2 (11721975_s_at) / Fold change /veh TPSAB1 /// TPSB2 (11721975_s_at) / RFU GSTM3 (11746129_a_at) / Fold change /veh GSTM3 (11746129_a_at) / RFU IL23R (11737362_x_at) / Fold change /veh IL23R (11737362_x_at) / RFU TMEM51 (11727254_a_at) / Fold change /veh TMEM51 (11727254_a_at) / RFU PIWIL2 (11732686_x_at) / Fold change /veh PIWIL2 (11732686_x_at) / RFU ORM1 (11744905_x_at) / Fold change /veh ORM1 (11744905_x_at) / RFU CCDC152 (11743942_at) / Fold change /veh CCDC152 (11743942_at) / RFU ECM1 (11717891_a_at) / Fold change /veh ECM1 (11717891_a_at) / RFU IL23R (11748794_a_at) / Fold change /veh IL23R (11748794_a_at) / RFU TNFAIP8L3 (11732012_x_at) / Fold change /veh TNFAIP8L3 (11732012_x_at) / RFU MBOAT4 (11741988_at) / Fold change /veh MBOAT4 (11741988_at) / RFU 11764193_at / Fold change /veh 11764193_at / RFU TMEM53 (11763286_at) / Fold change /veh TMEM53 (11763286_at) / RFU MAGEB2 (11727129_at) / Fold change /veh MAGEB2 (11727129_at) / RFU TMEM200A (11744735_a_at) / Fold change /veh TMEM200A (11744735_a_at) / RFU CCDC152 (11751479_a_at) / Fold change /veh CCDC152 (11751479_a_at) / RFU FAM211A (11726209_a_at) / Fold change /veh FAM211A (11726209_a_at) / RFU RGS16 (11746705_a_at) / Fold change /veh RGS16 (11746705_a_at) / RFU VCAN (11755009_s_at) / Fold change /veh VCAN (11755009_s_at) / RFU RHOB (11743442_s_at) / Fold change /veh RHOB (11743442_s_at) / RFU RGS16 (11720943_a_at) / Fold change /veh RGS16 (11720943_a_at) / RFU RGS16 (11720944_at) / Fold change /veh RGS16 (11720944_at) / RFU, VPS4B / Fold change vs veh, VPS4B / RFU, CREB1 / Fold change vs veh, CREB1 / RFU, DNAJC13 / Fold change vs veh, DNAJC13 / RFU, GNAQ / Fold change vs veh, GNAQ / RFU, CDK5R1 / Fold change vs veh, CDK5R1 / RFU, ZRANB3 / Fold change vs veh, ZRANB3 / RFU, CUL4A / Fold change vs veh, CUL4A / RFU, CCNY / Fold change vs veh, CCNY / RFU, UFL1 / Fold change vs veh, UFL1 / RFU, COG3 / Fold change vs veh, COG3 / RFU, DIAPH2 / Fold change vs veh, DIAPH2 / RFU, SKA2 / Fold change vs veh, SKA2 / RFU, AFF3 / Fold change vs veh, AFF3 / RFU, LMF1 / Fold change vs veh, LMF1 / RFU, IPO11 / Fold change vs veh, IPO11 / RFU, DFFB / Fold change vs veh, DFFB / RFU, FOXP1 / Fold change vs veh, FOXP1 / RFU, CARD8 / Fold change vs veh, CARD8 / RFU, STRN3 / Fold change vs veh, STRN3 / RFU, ADK / Fold change vs veh, ADK / RFU, RASSF2 / Fold change vs veh, RASSF2 / RFU, WIPF1 / Fold change vs veh, WIPF1 / RFU, LARP1B / Fold change vs veh, LARP1B / RFU, RASA1 / Fold change vs veh, RASA1 / RFU, RB1 / Fold change vs veh, RB1 / RFU, PPFIA1 / Fold change vs veh, PPFIA1 / RFU, MAT2A / Fold change vs veh, MAT2A / RFU, CCT5 / Fold change vs veh, CCT5 / RFU, WDR92 / Fold change vs veh, WDR92 / RFU, CUX1 / Fold change vs veh, CUX1 / RFU, TTC7A / Fold change vs veh, TTC7A / RFU, TMEM135 / Fold change vs veh, TMEM135 / RFU, DEPTOR / Fold change vs veh, DEPTOR / RFU, CPM / Fold change vs veh, CPM / RFU, DNAJB6 / Fold change vs veh, DNAJB6 / RFU, CACNA2D3 / Fold change vs veh, CACNA2D3 / RFU, DTX4 / Fold change vs veh, DTX4 / RFU, TFCP2 / Fold change vs veh, TFCP2 / RFU, GMCL1 /// GMCL1P1 / Fold change vs veh, GMCL1 /// GMCL1P1 / RFU, AEBP2 / Fold change vs veh, AEBP2 / RFU, SNHG1 /// SNORD22 /// SNORD25 /// SNORD26 /// SNORD27 /// SNORD28 /// SNORD29 /// SNORD31 / Fold change vs veh, SNHG1 /// SNORD22 /// SNORD25 /// SNORD26 /// SNORD27 /// SNORD28 /// SNORD29 /// SNORD31 / Fold change (Aza/veh), C12orf56 (ProbeSet 11735607_a_at) / Fold change (ACY-1035/veh), C12orf56 (ProbeSet 11735607_a_at) / Fold change (Aza/veh), FGFR1OP (ProbeSet 11751329_s_at) / Fold change (ACY-1035/veh), FGFR1OP (ProbeSet 11751329_s_at) / Fold change (Aza/veh), VPS36 (ProbeSet 11739960_a_at) / Fold change (ACY-1035/veh), VPS36 (ProbeSet 11739960_a_at) / RFU SYPL1 (11715823_x_at) / Fold change /veh SYPL1 (11715823_x_at) / RFU IGFBP7 (11715501_s_at) / Fold change /veh IGFBP7 (11715501_s_at) / RFU REEP3 (11722064_at) / Fold change /veh REEP3 (11722064_at) / RFU IGLL1 (11728026_x_at) / Fold change /veh IGLL1 (11728026_x_at): dose or concentration left out as unconfirmed. Particulars: ProbeSet 11719817_x_at; LIST B.

`Nc1ccc(-c2cccs2)cc1NC(=O)c1ccc2c(c1)cc(C1CC1)n2CCN1CCOCC1` [ACY-1035]: the “Fold change vs veh, BET1” value is listed as 0.95.
